{
  "source": "paper PMC5613243",
  "about": "(Chemical Science, 2017)",
  "target": "T1, XiaK (Streptomyces sp. SCSIO 02999, UniProt I3VFC1)",
  "T1 sequence (I3VFC1 1-596)": "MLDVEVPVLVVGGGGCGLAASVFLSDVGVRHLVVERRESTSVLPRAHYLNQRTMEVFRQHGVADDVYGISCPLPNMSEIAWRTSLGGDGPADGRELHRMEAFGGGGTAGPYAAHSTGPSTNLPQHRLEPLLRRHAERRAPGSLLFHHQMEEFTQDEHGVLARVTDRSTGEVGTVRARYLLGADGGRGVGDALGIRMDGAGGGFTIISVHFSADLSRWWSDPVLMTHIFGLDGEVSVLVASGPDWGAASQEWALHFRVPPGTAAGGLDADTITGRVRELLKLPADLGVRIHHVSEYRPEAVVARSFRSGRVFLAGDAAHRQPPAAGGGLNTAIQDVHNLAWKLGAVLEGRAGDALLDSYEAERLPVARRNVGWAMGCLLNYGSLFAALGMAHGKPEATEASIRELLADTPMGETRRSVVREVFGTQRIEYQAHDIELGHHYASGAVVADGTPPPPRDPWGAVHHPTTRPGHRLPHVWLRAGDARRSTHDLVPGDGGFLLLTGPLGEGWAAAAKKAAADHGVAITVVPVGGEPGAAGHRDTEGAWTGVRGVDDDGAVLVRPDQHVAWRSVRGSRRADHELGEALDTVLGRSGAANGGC",
  "assay": "release of bound flavin by heat denaturation of purified protein",
  "type": "binding",
  "details": "noncovalently bound, co-purified cofactor",
  "data": [
    {"smiles": "Cc1cc2nc3c(=O)[nH]c(=O)nc-3n(C[C@H](O)[C@H](O)[C@H](O)COP(=O)(O)OP(=O)(O)OC[C@H]3O[C@@H](n4cnc5c(N)ncnc54)[C@H](O)[C@@H]3O)c2cc1C", "note": "[FAD]", "values": [
      {"measurement": "release of bound flavin by heat denaturation of purified protein", "result": "released the noncovalently-bound flavin adenosine dinucleotide (FAD) cofactor upon heat denaturation"}
    ]}
  ]
}
